The record followed here is patent US6284768A, “Src family SH2 domain inhibitors” (Boehringer Ingelheim Pharmaceuticals, Inc., priority 1999, dated 2001).

The assay deals with T1, p56lck GST-SH2 (lck SH2 domain) (Homo sapiens, UniProt P06239).
T1 construct: GST (N)
Nature of the assay: Receptor-ligand equilibrium binding constants by surface plasmon resonance (biosensor), lck SH2 domain. The procedure:
The general methods for the determination of Receptor-Ligand Kinetic and Equilibrium Binding Constants using Surface Plasmon Resonance as applied to the lck SH2 Domain have been described in: M. M. Morelock, R. H. Ingraham, R. Betageri.
General Biosensor Methods.
The mobile phase buffer, 10 mM HEPES, pH 7.4, 150 mM NaCl, and 0.05% P-20, was maintained at a flow rate of 5 μL/min in all experiments. All buffers and protein solutions were filtered through a 0.2 um filter and degassed immediately before use.
Strepavidin was diluted to 0.25 mg/ml in 20 mM NaOAc buffer, pH 4.5 and immobilized by free amine coupling to approximately 3000 RU for all 4 flow cells from a single sensor chip .
Surface Kd Determinations.
The surface was regenerated by 4μL of 20 mM HCl followed by 4 μL of 150 mM Tris base. The values used in the analysis were the equilibrium plateau values from which the sample refractive index has been subtracted. For the data analyzed for linear function the equilibrium plateau values without the sample refractive index subtracted were used. Free solution Kd determinations. In a 96 well microtiter plate 20 nM SH2 domain suspended in running buffer containing 0.2 mg/ml BSA and 1 mM DT'T was distributed in 100 μL per well. The highest concentration of compound tested was added to the last well and titrated with 2 fold dilutions for a final of 10 concentrations to be run. 25 μL of the mixture was injected over a strepavidin-biotin-ε-aminohexanoic acid-EGQpYEEIPIA surface and regenerated with 4 μL of 20 mM HCl. […], of 150 mM Tris base was injected after every 11 samples. Typically 8 assays were run in an overnight programmed run.
A general note: Surface plasmon resonance follows binding to a sensor surface in real time, without labels.

[1] abbreviates: Table 1, compounds of formula (II).
Where [2] appears, read: Table 2, compounds of formula (III).

Usually Kd stands for a measure of binding affinity in units of concentration. The low end stands for tighter binding, the high end for weaker binding.

T1 sequence (P06239 127-224 limits assumed): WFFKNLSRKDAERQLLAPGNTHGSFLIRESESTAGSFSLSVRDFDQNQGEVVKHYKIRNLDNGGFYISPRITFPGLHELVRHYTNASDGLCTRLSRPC

Under setting [1], `Cc1ccn(Cc2ccc(C(=O)C(F)(F)F)cc2)c(=O)c1NC(=O)C(Cc1ccc(C(C)(C)C(=O)O)cc1)NC(=O)Cc1ccc2ccccc2c1` (centres unmarked) [Compound 226] showed an equilibrium dissociation constant (Kd) of 33 µM.
Still for that read-out and setting: in the case of `COc1ccc(Cn2ccc(C)c(NC(=O)C(Cc3ccc(C(C)(C)C(=O)O)cc3)NC(=O)C(C)(C)c3ccc4ccccc4c3)c2=O)cc1O` (centres unmarked) [Compound 232] it was 33 µM; in that of `Cc1ccn(Cc2ccccc2)c(=O)c1NC(=O)[C@H](Cc1ccc(CC(=O)O)cc1)NC(=O)Cc1cccc2ccccc12` [Compound 18], 17.7 µM; in that of `CCCCCCn1ccc(C)c(NC(=O)C(Cc2ccc(C(C)(C)C(=O)O)cc2)NC(=O)CCc2ccccc2)c1=O` (centres unmarked) [Compound 204], 10 µM.
The same measure, in the same setting: in the case of `COc1ccc(Cn2ccc(C)c(NC(=O)[C@H](Cc3ccc(NC(=O)C(=O)O)cc3)NC(=O)Cc3csc(NC=O)n3)c2=O)cc1` [Compound 13] it was 4.6 µM; in that of `CCN(CC)c1ccc(CC(=O)N[C@@H](Cc2ccc(NC(=O)C(=O)O)cc2)C(=O)Nc2c(C)ccn(Cc3ccc(OC)cc3)c2=O)cc1` [Compound 40], 1.9 µM.
On the same count and under the same terms, in the case of `COc1ccc(Cn2ccc(C)c(NC(=O)[C@H](Cc3ccc(NC(=O)C(=O)O)cc3)NC(=O)Cc3ccc(N(C)C)cc3)c2=O)cc1` [Compound 22] it was 1.8 µM; in that of `COc1ccc(C(C)n2ccc(C)c(NC(=O)[C@H](Cc3ccc(CC(=O)O)cc3)NC(=O)C(C)(C)C)c2=O)cc1` (some centres unmarked) [Compound 82], 32 µM; in that of `COc1cc(Cn2ccc(C)c(NC(=O)C(Cc3ccc(C(C)(C)C(=O)O)cc3)NC(=O)Cc3ccc4ccccc4c3)c2=O)cc(OC)c1OC` (centres unmarked) [Compound 157], 21 µM.
`COc1ccc(Cn2ccc(C)c(NC(=O)[C@H](Cc3ccc(CC(=O)O)cc3)NC(=O)Cc3ccccc3Oc3ccccc3)c2=O)cc1` [Compound 73]: under setting [1], the Kd is above 250 µM.
The same measure, in the same setting: in the case of `COc1ccc(Cn2ccc(C)c(NC(=O)[C@H](Cc3ccc(NC(=O)C(=O)O)cc3)NC(=O)CN3CCc4ccccc4C3)c2=O)cc1` [Compound 29] it was 1.2 µM; in that of `Cc1ccn(CCc2ccccc2)c(=O)c1NC(=O)C(Cc1ccc(C(C)(C)C(=O)O)cc1)NC(=O)Cc1cccc2ccccc12` (centres unmarked) [Compound 199], 9.1 µM; in that of `COc1ccc(Cn2ccc(C)c(NC(=O)[C@H](Cc3ccc(NC(=O)C(=O)O)cc3)NC(=O)Cc3ccccc3N(C)C)c2=O)cc1` [Compound 35], 4 µM.
Same read-out and setting: in the case of `COc1ccc(Cn2ccc(C)c(NC(=O)[C@H](Cc3ccc(NC(=O)C(=O)O)cc3)NC(=O)Nc3c(C)ccc4ccccc34)c2=O)cc1` [Compound 30] it was 0.35 µM; in that of `COCCCCn1ccc(C)c(NC(=O)C(Cc2ccc(C(C)(C)C(=O)O)cc2)NC(=O)Cc2ccc3ccccc3c2)c1=O` (centres unmarked) [Compound 237], 3.1 µM; in that of `COc1ccc(Cn2cc(Br)c(C)c(NC(=O)[C@H](Cc3ccc(C(C)(C)C(=O)O)cc3)NC(=O)C(C)(C)c3ccc(C(F)(F)F)cc3)c2=O)cc1` [Compound 227], 0.37 µM.
On the same count and under the same terms, in the case of `COc1ccc(Cn2ccc(C)c(NC(=O)[C@H](Cc3ccc(CC(=O)O)cc3)NC(=O)C(F)(F)F)c2=O)cc1` [Compound 87] it was 18 µM; in that of `Cc1ccn(Cc2ccc(C(C)C)cc2)c(=O)c1NC(=O)[C@H](Cc1ccc(C(C)(C)C(=O)O)cc1)NC(=O)Cc1c[nH]c2ccccc12` [Compound 100], 1.5 µM; in that of `COc1ccc(Cn2ccc(C)c(NC(=O)[C@H](Cc3ccc(CC(=O)O)cc3)NC(=O)Cc3ccc(C(C)(C)C)cc3)c2=O)cc1` [Compound 162], 1 µM.
On to `COc1ccc(Cn2ccc(C)c(NC(=O)[C@H](Cc3ccc(NC(=O)C(=O)O)cc3)NC(C)=O)c2=O)cc1` [Compound 6], for which binding under setting [1] was characterised by a dissociation constant (Kd) of 8.3 µM.
The same measure, in the same setting: in the case of `COc1ccc(Cn2ccc(C)c(NC(=O)[C@H](Cc3ccc(C(C)C(=O)O)cc3)NC(=O)Cc3cccc4ccccc34)c2=O)cc1` (some centres unmarked) [Compound 3] it was 5.1 µM.
Under setting [1], `COC1CCC(Cn2ccc(C)c(NC(=O)C(Cc3ccc(C(C)(C)C(=O)O)cc3)NC(=O)Cc3ccc(C(F)(F)F)cc3)c2=O)CC1` (centres unmarked) [Compound 148] yielded a dissociation constant Kd of 3.6 µM.
The molecule `COc1ccc(Cn2ccc(C)c(NC(=O)[C@H](Cc3ccc(NC(=O)C(=O)O)cc3)NC(=O)OC(C)(C)C)c2=O)cc1` [Compound 4] registered a Kd under setting [1] of 42.5 µM. This Kd lies about 12-fold higher than the previous one.
In turn, `COc1ccc(Cn2ccc(C)c(NC(=O)[C@H](Cc3ccc(NC(=O)C(=O)O)cc3)NC(=O)Cc3csc(N)n3)c2=O)cc1` [Compound 10] displayed a Kd under setting [1] of 6.7 µM.
On the same count and under the same terms, in the case of `COc1ccc(Cn2ccc(C)c(NC(=O)[C@H](Cc3ccc(NC(=O)C(=O)O)cc3)NC(=O)Cc3cccc(Br)c3)c2=O)cc1` [Compound 37] it was 0.65 µM.
Still for that read-out and setting: as for `COc1ccc(Cn2ccc(C)c(NC(=O)[C@H](Cc3ccc(CC(=O)O)cc3)NC(=O)C3(c4ccccc4)CCCC3)c2=O)cc1` [Compound 78], the figure is 13 µM; as for `COc1ccc(Cn2ccc(C)c(NC(=O)[C@H](Cc3ccc(NC(=O)C(=O)O)cc3)NC(=O)Cc3ccccc3Br)c2=O)cc1` [Compound 38], 3.2 µM; as for `COc1ccc(C(C)n2ccc(C)c(NC(=O)[C@H](Cc3ccc(CC(=O)O)cc3)NC(=O)Cc3cccc4ccccc34)c2=O)cc1` (some centres unmarked) [Compound 83], 2.1 µM.
`COc1ccc(Cn2ccc(C)c(NC(=O)[C@H](Cc3ccc(NC(=O)C(=O)O)cc3)NC(=O)Cc3ccc4ccccc4c3)c2=O)cc1` [Compound 32]: the Kd under setting [1] was determined as 0.35 µM. Against the preceding molecule, the Kd is about 6-fold lower.
Still for that read-out and setting: as for `Cc1ccn(Cc2ccoc2)c(=O)c1NC(=O)C(Cc1ccc(C(C)(C)C(=O)O)cc1)NC(=O)Cc1ccc2ccccc2c1` (centres unmarked) [Compound 202], the figure is 2.5 µM; as for `COc1ccc(Cn2ccc(C)c(NC(=O)[C@H](Cc3ccc(CC(=O)O)cc3)NC(=O)Cc3cccc(Oc4ccccc4)c3)c2=O)cc1` [Compound 61], 3.3 µM; as for `CCCCCn1ccc(C)c(NC(=O)C(Cc2ccc(C(C)(C)C(=O)O)cc2)NC(=O)C(C)(C)c2ccc3ccccc3c2)c1=O` (centres unmarked) [Compound 193], 4.1 µM.
Same read-out and setting: in the case of `COc1ccc(Cn2ccc(C)c(NC(=O)[C@H](Cc3ccc(CC(=O)O)cc3)NC(=O)C(C)(C)C)c2=O)cc1` [Compound 63] it was 12 µM; in that of `Cc1ccn(CC=CCC2CCCCC2)c(=O)c1NC(=O)[C@H](Cc1ccc(CC(=O)O)cc1)NC(=O)Cc1cccc2ccccc12` [Compound 12], above 250 µM.
`COc1ccc(Cn2nc(C)c(C)c(NC(=O)[C@H](Cc3ccc(CC(=O)O)cc3)NC(=O)Cc3cccc4ccccc34)c2=O)cc1` [Compound 244] yielded a Kd under setting [2] of 6 µM.
Consider `COc1ccc(Cn2cc(I)c(C)c(NC(=O)C(Cc3ccc(C(C)(C)C(=O)O)cc3)NC(=O)Cc3ccc4ccccc4c3)c2=O)cc1` (racemic) [Compound 229, 3-[2'-(R,S)-(2""-Naphthylacetyl)amino-3'4"-(1'"-carboxy-1'"-methyl)ethyl]benzene]propanoylamino-5-iodo-1-(4-methoxybenzyl)-4-methyl-2-pyridone], for which the affinity under setting [1], expressed as Kd, was 0.14 µM.
Still for that read-out and setting: in the case of `Cc1ccn(Cc2ccc(O)cc2)c(=O)c1NC(=O)[C@H](Cc1ccc(C(C)(C)C(=O)O)cc1)NC(=O)C(C)(C)c1cccc2ccccc12` [Compound 134] it was 5.7 µM; in that of `COc1ccc(Cn2ccc(C)c(NC(=O)[C@H](Cc3ccc(NC(=O)C(=O)O)cc3)NC(=O)Cc3cccc([N+](=O)[O-])c3)c2=O)cc1` [Compound 105], 0.82 µM; in that of `COc1ccc(Cn2cc(Br)c(C)c(NC(=O)[C@H](Cc3ccc(C(C)(C)C(=O)O)cc3)NC(=O)C(C)(C)c3ccc4ccccc4c3)c2=O)cc1` [Compound 233], 0.42 µM.
For the molecule `COc1ccc(Cn2ccc(C)c(NC(=O)[C@H](Cc3ccc(NC(=O)C(=O)O)cc3)NC(=O)Cc3ccc([N+](=O)[O-])cc3)c2=O)cc1` [Compound 33], under setting [1], binding was put at a Kd of 3.7 µM.
The molecule `COc1ccc(Cn2ccc(C)c(NC(=O)[C@H](Cc3ccc(CC(=O)O)cc3)NC(=O)Cc3ccc4ccccc4c3)c2=O)cc1` [Compound 59, 3-[2'-(S)-(2'"-Naphthylacetyl)amino-3'-(4"-carboxymethyl)benzene]propanoylamino-1-(4-methoxybenzyl)-4-methyl-2-pyridone] displayed an equilibrium dissociation constant (Kd) under setting [1] of 1.5 µM.
Still for that read-out and setting: in the case of `COc1ccc(Cn2ccc(C)c(NC(=O)[C@H](Cc3ccc(C(C)(C)C(=O)O)cc3)NC(=O)[C@@H](C)c3cccc4ccccc34)c2=O)cc1` [Compound 45] it was 3.4 µM; in that of `COc1ccc(Cn2ccc(C)c(NC(=O)[C@H](Cc3ccc(CC(=O)O)cc3)NC(=O)Cc3cc4ccccc4cc3C)c2=O)cc1` [Compound 60], 1.9 µM.
In turn, `COc1ccc(Cn2ccc(C)c(NC(=O)[C@H](Cc3ccc(NC(=O)C(=O)O)cc3)NC(=O)Cc3ccc(-n4c(C)ccc4C)cc3)c2=O)cc1` [Compound 39] showed a Kd under setting [1] of 2.3 µM.
Molecule `CCCCCn1ccc(C)c(NC(=O)C(Cc2ccc(C(C)(C)C(=O)O)cc2)NC(=O)Cc2cccc3ccccc23)c1=O` (centres unmarked) [Compound 191] had a dissociation constant (Kd) under setting [1] of 3.1 µM.
With `COc1ccc(Cn2ncc(C)c(NC(=O)C(Cc3ccc(C(C)(C)C(=O)O)cc3)NC(=O)Cc3ccccc3)c2=O)cc1` (centres unmarked) [Compound 245], under setting [2], the Kd came to 23 µM.
As for `COc1cccc(Cn2ccc(C)c(NC(=O)[C@H](Cc3ccc(CC(=O)O)cc3)NC(=O)Cc3cccc4ccccc34)c2=O)c1` [Compound 20], binding under setting [1] was characterised by a dissociation constant (Kd) of 19.4 µM.
